Values joined by “and” are separate entries in the source; they are usually repeats but may differ in a detail not shown here. Equal entries are not always repeated.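 Compound exposure: 48 hours, 5 concentrations, 96-well plates. GI50: concentration for 50% inhibition of growth. TGI: total growth inhibition.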
Legend:
Assay in all cases: NCI tumour cell line growth inhibition, 48 h
NCI-H522 lung = system: NCI-H522 lung
ACHN renal = system: ACHN renal
NCI-H23 lung = system: NCI-H23 lung
SF-295 CNS = system: SF-295 CNS
UO-31 renal = system: UO-31 renal
MOLT-4 leukemia = system: MOLT-4 leukemia
OVCAR-3 ovarian = system: OVCAR-3 ovarian
TK-10 renal = system: TK-10 renal
HOP-62 NSCLC = system: HOP-62 NSCLC
SK-OV-3 ovarian = system: SK-OV-3 ovarian

SMILES | TGI (NCI-H522 lung) | TGI (ACHN renal) | TGI (NCI-H23 lung) | TGI (SF-295 CNS) | TGI (UO-31 renal) | TGI (MOLT-4 leukemia) | TGI (OVCAR-3 ovarian) | TGI (TK-10 renal) | TGI (HOP-62 NSCLC) | TGI (SK-OV-3 ovarian) | GI50 (ACHN renal) | GI50 (SF-295 CNS) | GI50 (UO-31 renal) | GI50 (MOLT-4 leukemia) | GI50 (OVCAR-3 ovarian) | GI50 (TK-10 renal) | GI50 (HOP-62 NSCLC) | GI50 (SK-OV-3 ovarian) | GI50 (NCI-H522 lung) | GI50 (NCI-H23 lung)
CCSc1nc(-c2cccs2)nc2ccc(I)cc12 | > 100 µM | > 100 µM | > 100 µM | > 100 µM | > 100 µM | > 100 µM | > 100 µM | > 100 µM | > 100 µM |  |  |  |  |  |  |  |  |  |  | 
CC1C(=O)C(C)C(c2ccco2)N(N=O)C1c1ccco1 (stereo unspecified) | > 100 µM |  | > 100 µM | > 100 µM | > 100 µM | > 100 µM | > 100 µM |  | > 100 µM | > 100 µM |  |  |  |  |  |  |  |  |  | 
C[n+]1c2ccccc2c(CNC(CS)C(=O)O)c2ccccc21 (stereo unspecified) | 34.8 µM | > 100 µM | > 100 µM | 63.4 µM | 58 µM | 36.7 µM | 62 µM | > 100 µM | 39.1 µM | 56.8 µM |  |  |  |  |  |  |  |  |  | 
O=C(NC(Cc1ccc(I)cc1)C(=O)O)c1ccc(Cl)cc1 (stereo unspecified) | > 100 µM |  | > 100 µM | > 100 µM | > 100 µM | > 100 µM | > 100 µM |  | > 100 µM | > 100 µM |  |  |  |  |  |  |  |  |  | 
COC(=O)c1ccccc1C1=C([N+](=O)[O-])C(c2cccc(Br)c2)C(C#N)=C(N)O1 (stereo unspecified) | 29.2 µM | 43.4 µM | 88.2 µM | > 100 µM |  | > 100 µM | 51.7 µM | > 100 µM | > 100 µM | > 100 µM |  |  |  |  |  |  |  |  |  | 
COc1cc([N+](=O)[O-])ccc1N1C(=O)C2c3[nH]c4ccccc4c3C3CCC(C(C)(C)C)CC3C2C1=O (stereo unspecified) | > 100 µM | > 100 µM | > 100 µM |  | > 100 µM | > 100 µM | > 100 µM | > 100 µM | 81.2 µM | > 100 µM |  |  |  |  |  |  |  |  |  | 
CCOP(=O)(OCC)C(Nc1cccc(F)c1)c1ccc(N(C)C)cc1 (stereo unspecified) | > 100 µM | > 100 µM | > 100 µM | > 100 µM | > 100 µM | > 100 µM | > 100 µM | > 100 µM | > 100 µM | > 100 µM |  |  |  |  |  |  |  |  |  | 
CN(C)CCCN1c2ccc([N+](=O)[O-])cc2CCc2cc([N+](=O)[O-])ccc21 | 32.3 µM and 34 µM | 23.5 µM and 29 µM | 33.7 µM and 34.9 µM | 29.4 µM and 29.8 µM | 37.4 µM and 25 µM | 42.9 µM and 25.3 µM | 30.2 µM and 30.5 µM | 23.3 µM and 24.3 µM | 30.4 µM and 25.6 µM | 32.4 µM and 29 µM |  |  |  |  |  |  |  |  |  | 
C[N+](C)(C)CCN[N+]1(C)CCCc2ccccc21 (stereo unspecified) | 40.3 µM | > 100 µM | > 100 µM | > 100 µM | > 100 µM | 90.6 µM | > 100 µM | > 100 µM | > 100 µM | > 100 µM |  |  |  |  |  |  |  |  |  | 
CC1(O)COCCCCOc2c(CN)cccc2NC(=O)c2nc(cnc2N)-c2ccc(cc2)S(=O)(=O)C(C)(C)C1 (stereo unspecified) |  | 2.06 µM |  | 2.84 µM | 2.31 µM | 2.4 µM | 2.56 µM | 3.34 µM | 3.17 µM | 2.8 µM | 0.042 µM | 1.43 µM | 1.06 µM | 0.019 µM | 1.23 µM | 1.64 µM | 1.26 µM | 1.37 µM |  | 
COC(=O)NC1C(C)OC(OC2C/C=C(/C)C3C=CC4C(OC5CC(OC6CC(OC7CC(O)C(O)C(C)O7)C(OC7CC(O)C(OC)C(C)O7)C(C)O6)C(O)C(C)O5)C(C)CC(C)C4C3(C)/C(O)=C3\C(=O)OC4(CC(C)C(CO)=CC4/C=C\2C)C3=O)CC1(C)[N+](=O)[O-] (stereo unspecified) | 49.4 µM | 27.2 µM | 41.5 µM | 53.2 µM | 51.3 µM | 31.7 µM |  | 40.6 µM | 37.8 µM |  |  |  |  |  |  |  |  |  |  | 
c1ccc([P+](c2ccccc2)(c2ccccc2)c2ccc(-c3ccc([P+](c4ccccc4)(c4ccccc4)c4ccccc4)cc3)cc2)cc1 | 64.4 µM | 73.3 µM | 55.3 µM | 76.9 µM |  | > 100 µM | 52.4 µM | > 100 µM | > 100 µM | > 100 µM |  |  |  |  |  |  |  |  |  | 
CCc1ccc2c(c1)C(=O)c1c-2n(CCCN)c(=O)c2cc([N+](=O)[O-])ccc12 | 2.7 µM | 2.84 µM | 3.29 µM | 2.47 µM | 2.69 µM |  | 2.96 µM | 2.49 µM | 2.78 µM |  | 1.51 µM | 1.07 µM | 1.38 µM |  | 1.58 µM | 1.2 µM | 1.37 µM |  | 1.23 µM | 1.81 µM
CCCCCCCN(CCCCCCC)CC(O)c1cc2ccccc2c2cc(Br)ccc12 (stereo unspecified) | > 100 µM | > 100 µM | > 100 µM |  | > 100 µM | > 100 µM | 36.4 µM | > 100 µM | > 100 µM | > 100 µM |  |  |  |  |  |  |  |  |  | 
CS(=O)(=O)OCCN(CCOS(C)(=O)=O)c1ccc(/C=N/Nc2ncnc3nc[nH]c23)cc1 | 31.1 µM | 97.2 µM | 39 µM | 46.6 µM | 92 µM | 40 µM | 39.8 µM | 63.6 µM | 74.8 µM | > 100 µM |  |  |  |  |  |  |  |  |  | 

From PubChem BioAssay (NCI)
